Laboratory results taken from patent US20260207578A1, “COMPOUND BASED ON SULFUR/OXYGEN SUBSTITUTED GLUTARIMIDE-BASED ISOINDOLINONE SKELETON AND USE THEREOF” (Gluetacs Therapeutics (Shanghai) Co., LTD., priority 2022, published 2026).

Columns and labels:
[1] = molecular target: T1, human Cereblon WT GST-tagged protein (Homo sapiens, UniProt Q96SW2); test: CRBN-binding affinity, HTRF (CEREBLON BINDING kit); settings: displacement of Thalidomide-Re reagent, 3 hours at room temperature
T1 construct: purchased CISBIO 64BDCRBNPEH
In short: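 HTRF competition format: compound, GST-tagged wild-type human Cereblon, Thalidomide-Re tracer and GST Eu antibody were combined in PROTAC binding buffer. Binding was derived from emission at 620 nm relative to blank and solvent control wells.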

[2] = molecular target: T2, IKZF1 (Homo sapiens, UniProt Q13422+Q96SW2); test: Western-blot assay, substrate protein in hPBMCs; type: cell-based; settings: hPBMC cells, 24 hours, tested at 50 nM and 500 nM, table does not say which
T2 construct: endogenous in cells; host or cells: human PBMCs (Milecell Biotechnologies)
In short: (§1)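 hPBMCs (1×10^6 cells/mL) exposed 24 h to compound at 50 nM and 500 nM, lysed, and probed by Western blot. Band grayscale normalized to internal control gives % protein remaining versus DMSO; DC50 from concentration-response fit at half DMSO band intensity.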

[3] = molecular target: T3, IKZF3 (Homo sapiens, UniProt Q96SW2+Q9UKT9); test: Western-blot assay, substrate protein in hPBMCs; type: cell-based; settings: hPBMC cells, 24 hours, tested at 50 nM and 500 nM, table does not say which
T3 construct: endogenous in cells; host or cells: human PBMCs (Milecell Biotechnologies)
In short: as §1

[4] = molecular target: T4, CK1α (Homo sapiens, UniProt P48729+Q96SW2); test: Western-blot assay, substrate protein in hPBMCs; type: cell-based; settings: hPBMC cells, 24 hours, tested at 50 nM and 500 nM, table does not say which
T4 construct: endogenous in cells; host or cells: human PBMCs (Milecell Biotechnologies)
In short: (§2)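 Protein levels read by Western blot of lysates from human PBMCs (1×10^6 cells/mL) treated 24 h. Percent remaining is target band over loading-control band, normalised to DMSO-treated cells; DC50 is the concentration halving DMSO-control band intensity, estimated by curve fit.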

[5] = molecular target: T5, GSPT1 (Homo sapiens, UniProt P15170+Q96SW2); test: Western-blot assay, substrate protein in hPBMCs; type: cell-based; settings: hPBMC cells, 24 hours, tested at 50 nM and 500 nM, table does not say which
T5 construct: endogenous in cells; host or cells: human PBMCs (Milecell Biotechnologies)
In short: as §2

[6] = molecular target: T6, IKZF2 (Homo sapiens, UniProt Q96SW2+Q9UKS7); test: Western-blot assay, substrate protein in hPBMCs; type: cell-based; settings: hPBMC cells, 24 hours, tested at 50 nM and 500 nM, table does not say which
T6 construct: endogenous in cells; host or cells: human PBMCs (Milecell Biotechnologies)
In short: as §2

[7] = molecular target: T7, Wee1 (Homo sapiens, UniProt P30291+Q96SW2); test: Western-blot assay, substrate protein in hPBMCs; type: cell-based; settings: hPBMC cells, 24 hours, tested at 50 nM and 500 nM, table does not say which
T7 construct: endogenous in cells; host or cells: human PBMCs (Milecell Biotechnologies)
In short: as §2

[8] = test system: MV-4-11; test: Half inhibitory concentration (IC50) against tumor cells, Cell Counting Kit-8; type: cell-based; settings: Homo sapiens, MV4-11, CCK-8, 96 h treatment, read-out: inhibitory activity (IC50, nM) against tumor cells proliferation
Description: The tumor cells used herein were cultured in a cell culture medium listed in table A at 37° C. in an incubator with 5% CO2.
After the cells were treated with the compounds of the present disclosure for a period of time, the cell viability detection reagent was added to the culture medium for cell viability assessment according to the instructions provided with the CCK-8 kit. […] The growth inhibition of the compounds of the present disclosure on cells was plotted by Prism Graphpad software, and the IC50 values of the compounds of the present disclosure were calculated therefrom.

T2 sequence (Q13422 whole entry): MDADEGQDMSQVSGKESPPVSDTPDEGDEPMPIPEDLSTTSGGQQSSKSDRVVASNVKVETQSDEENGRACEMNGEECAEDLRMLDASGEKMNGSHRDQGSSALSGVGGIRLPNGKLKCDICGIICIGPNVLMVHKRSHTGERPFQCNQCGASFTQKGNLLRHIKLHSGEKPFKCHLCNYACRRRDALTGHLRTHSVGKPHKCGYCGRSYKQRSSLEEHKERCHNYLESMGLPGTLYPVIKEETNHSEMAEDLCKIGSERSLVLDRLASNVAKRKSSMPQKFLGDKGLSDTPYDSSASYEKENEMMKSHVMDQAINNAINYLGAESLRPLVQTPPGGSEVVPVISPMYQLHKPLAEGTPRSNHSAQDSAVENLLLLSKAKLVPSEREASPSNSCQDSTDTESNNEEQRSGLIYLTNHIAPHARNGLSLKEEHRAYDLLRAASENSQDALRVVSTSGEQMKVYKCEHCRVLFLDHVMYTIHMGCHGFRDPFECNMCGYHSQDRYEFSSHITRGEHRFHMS
T2 sequence (Q96SW2 whole entry): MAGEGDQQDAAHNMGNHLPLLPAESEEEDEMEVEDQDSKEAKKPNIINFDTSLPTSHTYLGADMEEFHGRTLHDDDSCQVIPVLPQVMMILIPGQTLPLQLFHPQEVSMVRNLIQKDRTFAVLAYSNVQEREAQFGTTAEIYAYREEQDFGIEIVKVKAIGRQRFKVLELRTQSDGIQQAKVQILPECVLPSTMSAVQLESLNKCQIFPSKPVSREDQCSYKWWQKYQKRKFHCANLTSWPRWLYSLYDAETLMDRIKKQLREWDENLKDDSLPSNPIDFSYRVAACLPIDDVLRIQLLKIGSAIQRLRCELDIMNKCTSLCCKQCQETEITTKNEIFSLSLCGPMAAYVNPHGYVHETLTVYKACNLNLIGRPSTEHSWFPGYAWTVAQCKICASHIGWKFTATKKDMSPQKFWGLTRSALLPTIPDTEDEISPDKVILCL
T2 sequence (Q16531 whole entry partner): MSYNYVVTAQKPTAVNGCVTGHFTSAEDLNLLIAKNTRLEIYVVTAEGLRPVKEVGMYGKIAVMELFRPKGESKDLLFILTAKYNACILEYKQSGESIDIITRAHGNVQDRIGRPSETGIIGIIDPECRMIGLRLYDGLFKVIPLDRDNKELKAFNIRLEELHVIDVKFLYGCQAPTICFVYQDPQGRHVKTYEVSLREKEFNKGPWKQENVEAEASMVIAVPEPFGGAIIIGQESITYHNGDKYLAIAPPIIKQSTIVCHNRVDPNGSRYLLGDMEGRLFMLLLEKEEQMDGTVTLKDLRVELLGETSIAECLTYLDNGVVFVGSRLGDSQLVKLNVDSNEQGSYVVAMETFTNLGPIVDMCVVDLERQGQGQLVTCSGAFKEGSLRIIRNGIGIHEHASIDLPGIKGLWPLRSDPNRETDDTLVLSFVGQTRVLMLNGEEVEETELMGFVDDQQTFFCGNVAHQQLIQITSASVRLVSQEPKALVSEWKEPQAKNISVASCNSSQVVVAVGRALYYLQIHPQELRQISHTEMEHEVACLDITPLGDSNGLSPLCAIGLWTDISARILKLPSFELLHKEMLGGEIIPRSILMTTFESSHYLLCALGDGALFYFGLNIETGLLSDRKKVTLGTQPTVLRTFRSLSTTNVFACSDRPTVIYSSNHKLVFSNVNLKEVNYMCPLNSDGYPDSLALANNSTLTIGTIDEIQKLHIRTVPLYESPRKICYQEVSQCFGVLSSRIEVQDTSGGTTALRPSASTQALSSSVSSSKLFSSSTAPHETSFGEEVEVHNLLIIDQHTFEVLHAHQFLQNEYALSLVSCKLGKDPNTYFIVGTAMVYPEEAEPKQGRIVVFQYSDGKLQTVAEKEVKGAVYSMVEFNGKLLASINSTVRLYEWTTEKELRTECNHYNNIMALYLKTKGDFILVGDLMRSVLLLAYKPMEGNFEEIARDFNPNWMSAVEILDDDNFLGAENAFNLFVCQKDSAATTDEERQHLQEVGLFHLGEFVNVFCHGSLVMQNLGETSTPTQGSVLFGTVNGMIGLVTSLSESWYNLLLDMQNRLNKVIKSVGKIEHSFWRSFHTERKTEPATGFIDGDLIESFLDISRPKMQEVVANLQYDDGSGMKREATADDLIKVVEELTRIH
T4 sequence (P48729 whole entry): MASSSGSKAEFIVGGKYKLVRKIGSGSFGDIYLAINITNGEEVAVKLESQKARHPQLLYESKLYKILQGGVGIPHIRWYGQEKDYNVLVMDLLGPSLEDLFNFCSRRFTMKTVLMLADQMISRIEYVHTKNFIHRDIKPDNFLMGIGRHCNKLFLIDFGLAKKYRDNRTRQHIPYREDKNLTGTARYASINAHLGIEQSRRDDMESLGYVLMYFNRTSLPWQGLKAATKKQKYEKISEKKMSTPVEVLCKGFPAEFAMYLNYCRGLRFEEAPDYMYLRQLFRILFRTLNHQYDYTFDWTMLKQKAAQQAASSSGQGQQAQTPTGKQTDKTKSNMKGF
T4 sequence (Q96SW2 whole entry): as the sequence (Q96SW2 whole entry) above
T4 sequence (Q16531 whole entry partner): as the sequence (Q16531 whole entry partner) above
T1 sequence (Q96SW2 whole entry): as the sequence (Q96SW2 whole entry) above
T7 sequence (P30291 whole entry): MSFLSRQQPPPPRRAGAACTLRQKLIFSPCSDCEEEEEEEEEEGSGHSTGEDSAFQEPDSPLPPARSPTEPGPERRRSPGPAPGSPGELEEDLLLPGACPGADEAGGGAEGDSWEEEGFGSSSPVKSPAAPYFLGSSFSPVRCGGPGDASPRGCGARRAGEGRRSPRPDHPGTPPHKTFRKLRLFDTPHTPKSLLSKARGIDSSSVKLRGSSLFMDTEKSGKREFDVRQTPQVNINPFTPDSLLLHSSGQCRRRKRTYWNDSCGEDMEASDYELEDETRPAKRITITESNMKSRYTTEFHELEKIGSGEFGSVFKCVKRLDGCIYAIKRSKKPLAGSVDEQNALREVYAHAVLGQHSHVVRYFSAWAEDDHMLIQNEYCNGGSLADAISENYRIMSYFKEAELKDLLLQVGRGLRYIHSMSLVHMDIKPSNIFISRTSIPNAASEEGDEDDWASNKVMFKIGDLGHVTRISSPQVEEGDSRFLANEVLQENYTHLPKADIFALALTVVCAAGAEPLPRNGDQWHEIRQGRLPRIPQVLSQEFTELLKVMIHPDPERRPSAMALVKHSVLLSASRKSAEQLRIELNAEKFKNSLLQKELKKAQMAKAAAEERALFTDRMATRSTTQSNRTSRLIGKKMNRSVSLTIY
T7 sequence (Q96SW2 whole entry): as the sequence (Q96SW2 whole entry) above
T7 sequence (Q16531 whole entry partner): as the sequence (Q16531 whole entry partner) above
T6 sequence (Q9UKS7 whole entry): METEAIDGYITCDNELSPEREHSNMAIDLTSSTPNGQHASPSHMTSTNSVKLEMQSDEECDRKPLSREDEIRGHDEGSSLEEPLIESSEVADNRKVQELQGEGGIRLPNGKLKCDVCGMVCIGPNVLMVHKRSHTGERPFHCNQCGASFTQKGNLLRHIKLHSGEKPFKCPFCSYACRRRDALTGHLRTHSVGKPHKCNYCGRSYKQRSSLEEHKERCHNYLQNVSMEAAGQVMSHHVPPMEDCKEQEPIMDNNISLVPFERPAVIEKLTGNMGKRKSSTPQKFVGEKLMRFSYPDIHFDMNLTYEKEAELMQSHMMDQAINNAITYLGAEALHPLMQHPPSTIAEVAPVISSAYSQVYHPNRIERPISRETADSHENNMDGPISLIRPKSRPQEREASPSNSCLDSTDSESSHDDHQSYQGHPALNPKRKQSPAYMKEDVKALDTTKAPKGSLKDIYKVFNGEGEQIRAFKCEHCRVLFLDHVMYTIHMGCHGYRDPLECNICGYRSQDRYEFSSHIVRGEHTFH
T6 sequence (Q96SW2 whole entry): as the sequence (Q96SW2 whole entry) above
T6 sequence (Q16531 whole entry partner): as the sequence (Q16531 whole entry partner) above
T5 sequence (P15170 whole entry): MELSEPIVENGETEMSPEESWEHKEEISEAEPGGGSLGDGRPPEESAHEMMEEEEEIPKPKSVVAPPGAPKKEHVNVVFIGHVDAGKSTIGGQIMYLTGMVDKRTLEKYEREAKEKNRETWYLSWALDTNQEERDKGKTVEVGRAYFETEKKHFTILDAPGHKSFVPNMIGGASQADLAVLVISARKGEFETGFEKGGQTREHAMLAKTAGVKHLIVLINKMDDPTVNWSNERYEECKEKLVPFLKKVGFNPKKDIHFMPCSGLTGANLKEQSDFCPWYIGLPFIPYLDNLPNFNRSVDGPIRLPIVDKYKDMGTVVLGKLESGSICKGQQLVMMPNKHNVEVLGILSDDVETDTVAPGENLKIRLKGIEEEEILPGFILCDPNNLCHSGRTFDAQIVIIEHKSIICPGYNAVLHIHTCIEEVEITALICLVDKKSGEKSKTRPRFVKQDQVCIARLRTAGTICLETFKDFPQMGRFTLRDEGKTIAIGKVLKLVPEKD
T5 sequence (Q96SW2 whole entry): as the sequence (Q96SW2 whole entry) above
T5 sequence (Q16531 whole entry partner): as the sequence (Q16531 whole entry partner) above

| SMILES | IC50 [1] | substrate protein remaining % [2] | substrate protein remaining % [3] | substrate protein remaining % [4] | substrate protein remaining % [5] | substrate protein remaining % [6] | substrate protein remaining % [7] | IC50 [8] |
| --- | --- | --- | --- | --- | --- | --- | --- | --- |
| CC1(C)CCC(CN2CC(Oc3ccc4c(c3)CN(C3CCC(=O)NC3=O)C4=O)C2)=C(c2ccc(F)cc2)C1 (centres unmarked) [GT-03459, 3-(5-((1-((4′-fluoro-5,5-dimethyl-3,4,5,6-tetrahydro-[1,1′-biphenyl]-2-yl)methyl)azetidin-3-yl)oxy)-1-oxoisoindolin-2-yl)piperidine-2,6-dione] | 500 to 1000 nM | A (0%≤ substrate protein remaining % ≤80%) | A (0%≤ substrate protein remaining % ≤80%) | A (0%≤ substrate protein remaining % ≤80%) | A (0%≤ substrate protein remaining % ≤80%) | A (0%≤ substrate protein remaining % ≤80%) | A (0%≤ substrate protein remaining % ≤80%) | – |
| O=C1CCC(N2Cc3cc(SC4CCCN(C(c5ccccc5)c5ccccc5)CC4)ccc3C2=O)C(=O)N1 (centres unmarked) [GT-06645, 3-(5-((1-benzhydrylazepan-4-yl)thio)-1-oxoisoindolin-2-yl)piperidine-2,6-dione] | < 500 nM | – | – | – | A (0%≤ substrate protein remaining % ≤80%) | – | – | 500 to 1000 nM |
| O=C1CCC(N2Cc3cc(OC4CCNCC4)ccc3C2=O)C(=O)N1 (centres unmarked) [GT-03612, 3-(1-oxo-5-(piperidin-4-yloxy)isoindolin-2-yl)piperidine-2,6-dione] | 1000 to 1900 nM | A (0%≤ substrate protein remaining % ≤80%) | A (0%≤ substrate protein remaining % ≤80%) | A (0%≤ substrate protein remaining % ≤80%) | A (0%≤ substrate protein remaining % ≤80%) | A (0%≤ substrate protein remaining % ≤80%) | A (0%≤ substrate protein remaining % ≤80%) | – |
| O=C1CCC(N2Cc3cc(OC4CN(CC5=C(c6ccc(F)cc6)CCCC5)C4)ccc3C2=O)C(=O)N1 (centres unmarked) [GT-06302, 3-(5-((1-((4′-fluoro-3,4,5,6-tetrahydro-[1,1′-biphenyl]-2-yl)methyl)azetidin-3-yl)oxy)-1-oxoisoindolin-2-yl)piperidine-2,6-dione] | 500 to 1000 nM | A (0%≤ substrate protein remaining % ≤80%) | A (0%≤ substrate protein remaining % ≤80%) | A (0%≤ substrate protein remaining % ≤80%) | A (0%≤ substrate protein remaining % ≤80%) | A (0%≤ substrate protein remaining % ≤80%) | A (0%≤ substrate protein remaining % ≤80%) | – |
| O=C1CCC(N2Cc3cc(SC4CN(Cc5cnc(-c6ccccc6)cn5)C4)ccc3C2=O)C(=O)N1 (centres unmarked) [GT-06350, 3-(1-oxo-5-((1-((5-phenylpyrazin-2-yl)methyl)azetidin-3-yl)thio)isoindolin-2-yl)piperidine-2,6-dione] | < 500 nM | A (0%≤ substrate protein remaining % ≤80%) | A (0%≤ substrate protein remaining % ≤80%) | A (0%≤ substrate protein remaining % ≤80%) | A (0%≤ substrate protein remaining % ≤80%) | A (0%≤ substrate protein remaining % ≤80%) | – | – |
| O=C1CCC(N2Cc3cc(SC4CN(C(c5cccc(F)c5)c5cccc(F)c5)C4)ccc3C2=O)C(=O)N1 (centres unmarked) [GT-06349, 3-(5-((1-(bis(3-fluorophenyl)methyl)azetidin-3-yl)thio)-1-oxoisoindolin-2-yl)piperidine-2,6-dione] | 500 to 1000 nM | A (0%≤ substrate protein remaining % ≤80%) | A (0%≤ substrate protein remaining % ≤80%) | A (0%≤ substrate protein remaining % ≤80%) | A (0%≤ substrate protein remaining % ≤80%) | A (0%≤ substrate protein remaining % ≤80%) | – | – |
| CC1(C)CCC(C(=O)N2CCC3(CCC(Sc4ccc5c(c4)CN(C4CCC(=O)NC4=O)C5=O)CC3)CC2)=C(c2ccc(Cl)cc2)C1 (centres unmarked) [GT-07016, 3-(5-((3-(4′-chloro-5,5-dimethyl-3,4,5,6-tetrahydro-[1,1′-biphenyl]-2-carbonyl)-3-azaspiro[5.5]undecan-9-yl)thio)-1-oxoisoindolin-2-yl)piperidine-2,6-dione] | 1000 to 1900 nM | – | – | – | – | – | – | 500 to 1000 nM |
| O=C1CCC(N2Cc3cc(SC4CN(C(c5ccccn5)c5ccccn5)C4)ccc3C2=O)C(=O)N1 (centres unmarked) [GT-06811, 3-(5-((1-(di(pyridin-2-yl)methyl)azetidin-3-yl)thio)-1-oxoisoindolin-2-yl)piperidine-2,6-dione] | < 500 nM | A (0%≤ substrate protein remaining % ≤80%) | A (0%≤ substrate protein remaining % ≤80%) | – | A (0%≤ substrate protein remaining % ≤80%) | A (0%≤ substrate protein remaining % ≤80%) | A (0%≤ substrate protein remaining % ≤80%) | – |
| O=C1CCC(N2Cc3cc(SC4CN(CC5=C(c6ccc(Cl)cc6)CCOC5)C4)ccc3C2=O)C(=O)N1 (centres unmarked) [GT-06351, 3-(5-((1-((4-(4-chlorophenyl)-5,6-dihydro-2H-pyran-3-yl)methyl)azetidin-3-yl)thio)-1-oxoisoindolin-2-yl)piperidine-2,6-dione] | < 500 nM | A (0%≤ substrate protein remaining % ≤80%) | A (0%≤ substrate protein remaining % ≤80%) | A (0%≤ substrate protein remaining % ≤80%) | A (0%≤ substrate protein remaining % ≤80%) | A (0%≤ substrate protein remaining % ≤80%) | – | – |
| CC1(C)CC(c2ccc(Cl)cc2)=C(CN2CC(Sc3ccc4c(c3)CN(C3CCC(=O)NC3=O)C4=O)C2)CO1 (centres unmarked) [GT-06514, 3-(5-((1-((4-(4-chlorophenyl)-6,6-dimethyl-5,6-dihydro-2H-pyran-3-yl)methyl)azetidin-3-yl)thio)-1-oxoisoindolin-2-yl)piperidine-2,6-dione] | 500 to 1000 nM | A (0%≤ substrate protein remaining % ≤80%) | A (0%≤ substrate protein remaining % ≤80%) | – | A (0%≤ substrate protein remaining % ≤80%) | A (0%≤ substrate protein remaining % ≤80%) | A (0%≤ substrate protein remaining % ≤80%) | – |
| CC1(C)CCC(CN2CCC3(CC2)CC(Oc2ccc4c(c2)CN(C2CCC(=O)NC2=O)C4=O)C3)=C(c2ccc(Cl)cc2)C1 (centres unmarked) [GT-06933, 3-(5-((7-((4′-chloro-5,5-dimethyl-3,4,5,6-tetrahydro-[1,1′-biphenyl]-2-yl)methyl)-7-azaspiro[3.5]nonan-2-yl)oxy)-1-oxoisoindolin-2-yl)piperidine-2,6-dione] | 1000 to 1900 nM | A (0%≤ substrate protein remaining % ≤80%) | A (0%≤ substrate protein remaining % ≤80%) | – | – | A (0%≤ substrate protein remaining % ≤80%) | A (0%≤ substrate protein remaining % ≤80%) | – |
| CC1(C)CCC(CN2CC(Sc3ccc4c(c3)CN(C3CCC(=O)NC3=O)C4=O)C2)=C(c2ccc(F)cc2)C1 (centres unmarked) [GT-03457, 3-(5-((1-((4′-fluoro-5,5-dimethyl-3,4,5,6-tetrahydro-[1,1′-biphenyl]-2-yl)methyl)azetidin-3-yl)thio)-1-oxoisoindolin-2-yl)piperidine-2,6-dione] | < 500 nM | A (0%≤ substrate protein remaining % ≤80%) | A (0%≤ substrate protein remaining % ≤80%) | A (0%≤ substrate protein remaining % ≤80%) | A (0%≤ substrate protein remaining % ≤80%) | A (0%≤ substrate protein remaining % ≤80%) | – | – |
| O=C1CCC(N2Cc3cc(OC4CN(Cc5ccc(-c6ccncc6)nc5)C4)ccc3C2=O)C(=O)N1 (centres unmarked) [GT-06809, 3-(5-((1-([2,4′-bipyridin]-5-ylmethyl)azetidin-3-yl)oxy)-1-oxoisoindolin-2-yl)piperidine-2,6-dione] | 500 to 1000 nM | A (0%≤ substrate protein remaining % ≤80%) | A (0%≤ substrate protein remaining % ≤80%) | A (0%≤ substrate protein remaining % ≤80%) | A (0%≤ substrate protein remaining % ≤80%) | A (0%≤ substrate protein remaining % ≤80%) | A (0%≤ substrate protein remaining % ≤80%) | – |
